ChEMBL document CHEMBL1201862, “PubChem BioAssay data set” (2004)
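Values below derive from 48-hour exposures of cells grown in 96-well plates, with endpoints linearly interpolated between the two concentrations bracketing the appropriate inhibition level. GI50 = concentration required for 50% inhibition of growth.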 The source made the active and inactive calls. No stated cut-off is given here; in the data, active = GI50 up to about 1.1 µM and inactive = higher.

Assays:
Experiment in all cases: DTP human tumour cell line panel, 48 h
A498 = test system: A498
CAKI-1 = test system: CAKI-1
EKVX = test system: EKVX
HCT-116 = test system: HCT-116
M14 = test system: M14
MCF7 = test system: MCF7
MDA-MB-435 = test system: MDA-MB-435
MDA-N = test system: MDA-N
Malme-3M = test system: Malme-3M
NCI-H460 = test system: NCI-H460
NCI-H522 = test system: NCI-H522
OVCAR-5 = test system: OVCAR-5
RPMI-8226 = test system: RPMI-8226
SK-MEL-28 = test system: SK-MEL-28
SK-OV-3 = test system: SK-OV-3
SNB-19 = test system: SNB-19
U-251 = test system: U-251
A549 = test system: A549
SF-539 = test system: SF-539
MOLT-4 = test system: MOLT-4

Measured: GI50

c1ccc2c(CN3CCN(Cc4c[nH]c5ccccc45)CC3)c[nH]c2c1
inactive: A498 14.4 µM | CAKI-1 23.5 µM | EKVX 13.3 µM | HCT-116 14.8 µM | M14 15.7 µM | MCF7 17.9 µM | MDA-MB-435 16.2 µM | MDA-N 14.9 µM | Malme-3M 15.3 µM | NCI-H460 12.7 µM | NCI-H522 16.5 µM | OVCAR-5 18.7 µM | RPMI-8226 19.3 µM | SK-MEL-28 17.9 µM | SK-OV-3 21.4 µM | SNB-19 21.6 µM | U-251 15.9 µM

O=C(Oc1ccc(S(=O)(=O)F)cc1F)c1ccccc1Cl
inactive: A498 57.5 µM | A549 35.5 µM | CAKI-1 64.9 µM | EKVX 24.4 µM | HCT-116 47.2 µM | M14 30.8 µM | MCF7 29.5 µM | MDA-MB-435 29.6 µM | MDA-N 33.3 µM | Malme-3M 31.8 µM | NCI-H460 27.3 µM | NCI-H522 18.3 µM | OVCAR-5 30.9 µM | RPMI-8226 21.1 µM | SF-539 22.5 µM | SK-MEL-28 74 µM | SK-OV-3 98.9 µM | SNB-19 30.5 µM | U-251 35.2 µM

[O-][Cl+3]([O-])([O-])O.c1ccc(C2=NN2c2ccccc2)cc1
inactive: A498 > 100 µM | A549 7.96 µM | CAKI-1 > 100 µM | EKVX 92.7 µM | M14 9.82 µM | MCF7 60 µM | MDA-MB-435 2.83 µM | MDA-N 4.27 µM | MOLT-4 3.73 µM | Malme-3M 29.5 µM | NCI-H460 71.8 µM | NCI-H522 35.3 µM | OVCAR-5 > 100 µM | SF-539 76.2 µM | SK-MEL-28 > 100 µM | SK-OV-3 > 100 µM | SNB-19 > 100 µM | U-251 > 100 µM

O=C(O)CCC1(c2ccccc2)NC(=O)NC1=O (configuration not stated)
inactive: A498 > 100 µM | A549 > 100 µM | CAKI-1 > 100 µM | EKVX > 100 µM | HCT-116 > 100 µM | MCF7 > 100 µM | MDA-MB-435 > 100 µM | MDA-N > 100 µM | Malme-3M > 100 µM | NCI-H460 > 100 µM | NCI-H522 > 100 µM | OVCAR-5 > 100 µM | RPMI-8226 > 100 µM | SF-539 > 100 µM | SK-MEL-28 > 100 µM | SK-OV-3 > 100 µM | U-251 > 100 µM

COc1ccc(N2C(=O)C3ON(C(C(N)=O)c4ccccc4)C(c4cc5ccccc5c5ccccc45)C3C2=O)cc1 (configuration not stated)
inactive: A498 > 50 µM | A549 > 50 µM | CAKI-1 9.1 µM | EKVX 24.5 µM | HCT-116 18.2 µM | M14 17.7 µM | MCF7 15.6 µM | MDA-MB-435 18.4 µM | MDA-N 11.8 µM | MOLT-4 14.5 µM | Malme-3M > 50 µM | NCI-H460 > 50 µM | NCI-H522 29.5 µM | OVCAR-5 > 50 µM | SF-539 16.1 µM | SK-MEL-28 > 50 µM | SK-OV-3 > 50 µM | SNB-19 > 50 µM | U-251 38.5 µM

COC(=O)C(C(=O)C(=O)NC1Nc2ccc(C)cc2S1)c1nc2ccc(Cl)cc2nc1O (configuration not stated)
inactive: A498 > 100 µM | A549 > 100 µM | CAKI-1 > 100 µM | EKVX 60.1 µM | HCT-116 > 100 µM | MCF7 > 100 µM | MDA-MB-435 > 100 µM | MDA-N > 100 µM | Malme-3M > 100 µM | NCI-H460 > 100 µM | NCI-H522 > 100 µM | OVCAR-5 > 100 µM | RPMI-8226 > 100 µM | SF-539 > 100 µM | SK-MEL-28 > 100 µM | SK-OV-3 > 100 µM | SNB-19 96.4 µM | U-251 > 100 µM

COC(=O)C1(CCCCCBr)CCCCCCCCCCC1=O (configuration not stated)
inactive: A498 28.3 µM | A549 31.3 µM | CAKI-1 25.5 µM | EKVX 78.9 µM | HCT-116 26.4 µM | M14 40.2 µM | MCF7 15.7 µM | MDA-MB-435 37.6 µM | MDA-N 29.2 µM | MOLT-4 17.9 µM | Malme-3M 19.7 µM | NCI-H460 58.6 µM | NCI-H522 20.5 µM | OVCAR-5 37.3 µM | SF-539 90.2 µM | SK-MEL-28 35.3 µM | SK-OV-3 > 100 µM | SNB-19 > 100 µM | U-251 28.3 µM
